Reference: US6924288B2, “Enantiomerically pure opioid diarylmethylpiperzine and methods of using same” (priority 2001, dated 2005)

Assays:
rats = assay: Tail pinch test for analgesia in rats; assay type: in vivo; details: rat; for Analgesia (delay of response to tail pinch): 0.30 mg/kg i.v., cutoff 20 sec
Method: Analgesia was assayed in rats using the tail pinch test with simultaneous monitoring of capillary blood gases (pCO2). During this testing period respiratory depression values were also obtained. Male rats (Wistar Hannover 200-300 g) were anesthetized with 2% isoflurane (J. A. Webster, Inc., Sterling, Mass. The femoral artery was cannulated with PE50 tubing for blood sampling. The external jugular vein was also cannulated with Silastic tubing for drug injection. After surgery, anesthetic gases were removed and the rat was allowed to rest in a plastic restrainer for 60 minutes to establish baseline values of blood gases.
The compounds 1-6 were administered intravenous. Nociceptive response and respiratory values were obtained for a 1-2 hour period. The femoral artery cannulation was used to draw arterial blood into a syringe pre-wetted with heparin. Samples were then analyzed with a blood gas analyzer (Ph/Gas Analyzer Synthesis 25 Model, Instrumentation Laboratory) to assess respiratory depression effects. The volume of blood taken each time was 0.15 cc. The syringes were capped immediately and the blood gases analyzed within 5 minutes. The blood exposed to air at the tip of the syringe was expelled. The blood was mixed by gentle inversion and an aliquots of 0.10 cc was injected into the blood gas analyzer.
An artery clamp was placed on the tail (one inch from the tip of the tail) for a short duration until an escape response occurred (i.e. tail-flick or vocalization). The escape response latency was recorded by means of a stopwatch. A cutoff time of 20 sec. was used to prevent unnecessary tissue damage. […] The elapsed time to elicit a pain response was recorded as the tail pinch latency in seconds. Blood gases were monitored at approximately the same time points as the tail pinch test.
The ED50 values for analgesia potency and respiratory depression were determined to calculate the safety or therapeutic ratio, which is defined as the respiratory depression ED50 divided by analgesia ED50.

μ opioid receptor = molecular target: T1, μ opioid receptor (Rattus norvegicus, UniProt P33535); assay: Radioligand binding, [3H]DAMGO competition, rat brain membranes
T1 construct: tissue Pel-Freeze Biological Inc. (Rogers, Ark.); host or cells: rat whole brain membranes
Method: (§1) Two stereoisomerically related racemic mixtures and inclusive enantiomers were evaluated for in vitro opioid receptor affinity in rat brain membranes (μ and δ opioid) and guinea pig cerebellum (κ opioid receptor). Membranes for radioligand binding were prepared from either rat whole brain or guinea pig cerebellum, supplied by Pel-Freeze Biological Inc. (Rogers, Ark.). Tissues were homogenized in 50 mM TRIS (Tris[hydrooxymethyl]aminomethane) buffer (pH 7.4) containing 50 ug/ml soybean trypsin inhibitor, 1 mM EDTA (Ethylenediaminetetraacetic acid), and 100 μM PMSF (Phenylmethylsulfonyl fluoride). The homogenized brain tissues were centrifuged at 500×g for 30 minutes (4° C.) to remove large debris. The supernatant was polytronically sonicated for 10 seconds (P.E. setting of 2, 4° C.). Sucrose solution was then added to a final concentration of 0.35 M using a 10 mM TRIS-Sucrose buffer (pH 7.4) and the brain membranes were then centrifuged at 40,000×g for 30 minutes (4° C.). The membrane pellets were then washed twice in 10 mM TRIS buffer (pH 7.4) containing 50 μg/ml soybean trypsin inhibitor, 1 mM EDTA, and 100 μM PMSF.
(§2) Radioligand binding assays were performed in 10 mM TRIS buffer (pH 7.4) containing 50 μg/ml soybean trypsin inhibitor, 1 mM EDTA, 5 mM MgCl2, and 100 μM PMSF. Tritium-labeled DAMGO (μ), Deltorphin II (δ), or U69593 (κ) purchased from New England Nuclear were used as ligands in competitive experiments (2-3×10^−10 M final concentrations) with non-specific binding defined by 0.5×10^−6 M Naloxone (purchased from SIGMA Chemical Co.). All binding assays were run at room temperature for 90 minutes and then terminated by rapid filtration on GF/C glass fiber filters (Whatman, Hillsboro, Oreg.) with 50 mM TRIS buffer (4° C., pH 7.4) employing a Brandel Semi-automatic Cell Harvester (Model M48, Brandel, Gaithersburg, Md.). The filters were washed twice with 50 mM TRIS buffer (4° C., pH 7.4) and the filters were placed in liquid scintillation cocktail and the bound radioactivity counted on a Beckman LS 6500 scintillation counter. The potency of the compounds in inhibiting the binding of radiolabelled DAMGO (μ), Deltorphin II (δ), or U69593 (κ) was determined from full concentration-effect curves. With the computer program Prism (GraphPad Software Inc., San Diego, Calif.) the IC50 values were determined using a one-site nonlinear regression analysis of the radioligand binding data. The IC50 values were then converted to Ki values using the Cheng-Prusoff equation. (Cheng Y and Prusoff W H (1973) Relationship between the inhibition constant (K1) and the concentration of inhibitor which causes 50 percent inhibition (I50) of a enzymatic reaction. Biochem Pharm 22:3099-3108.)

δ opioid receptor = molecular target: T2, δ opioid receptor (Rattus norvegicus, UniProt P33533); assay: Radioligand binding, [3H]Deltorphin II competition, rat brain membranes; details: read-out: Rat Brain Membrane K1 (nM) δ
T2 construct: tissue Pel-Freeze Biological Inc. (Rogers, Ark.); host or cells: rat whole brain membranes
Method: as §1, §2

κ opioid receptor = molecular target: T3, κ opioid receptor (Cavia porcellus, UniProt P41144); assay: Radioligand binding, [3H]U69593 competition, guinea pig cerebellum membranes; details: read-out: Guinea Pig Brain Membrane K1 (nM) κ
T3 construct: tissue Pel-Freeze Biological Inc. (Rogers, Ark.); host or cells: guinea pig cerebellum membranes
Method: as §1, §2

## C=CCN1C[C@H](C)N([C@H](c2ccsc2)c2cccc(O)c2)C[C@H]1C [Compound 2, (−)3-((S)-((2S,5R)-4-allyl-2,5-dimethyl-1-piperazinyl)(3-thienyl)methyl)phenol]
rats; 4 min.
  Analgesia (delay of response to tail pinch): 20 s
rats; 8 min.
  Analgesia (delay of response to tail pinch): 20 s
rats; 32 min.
  Analgesia (delay of response to tail pinch): 12.3 s
rats; i.v., tail pinch, FIGS. 1-6
  Analgesic effect in words: safely maintains analgesia for an extended time
rats; intravenous, tail pinch, 20 sec cutoff
  ED50: 0.046 mg/kg
μ opioid receptor; mu and delta receptor binding
  K1 relative to the K1 of its enantiomer DPI-165: approximately 1/1000
μ opioid receptor; rat brain membranes, [3H]DAMGO, read-out: Rat Brain Membrane K1 (nM) μ
  Ki: 0.4 nM
δ opioid receptor
  Ki: 0.88 nM
κ opioid receptor
  Ki: 1.77 nM
